{"source": "patent US20180214467A1", "about": "“GLP-1 SECRETAGOGUE” (EDUCATIONAL FOUNDATION JICHI MEDICAL UNIVERSITY, priority 2015, published 2018)", "key": {"[1]": {"system": "murine large intestine-derived, Glucagon-like peptide-1 (GLP-1) producing cell line GLUTag", "experiment": "GLP-1 secretion test in GLUTag cells (preliminary test)", "type": "cell-based", "details": "10 mM, 20 mM and 40 mM solutions, 60 minutes", "protocol": "A murine large intestine-derived, Glucagon-like peptide-1 (GLP-1) producing cell line GLUTag was cultured in 10%-FBS containing Dulbecco's modified Eagle's medium at 37° C. in the presence of 5% CO2. The GLUTag cells were cultured in a 48-well plate for 2 or 3 days until subconfluence. Before each sample (D-psicose or an indigestible dextrin) was added, the wells were washed with a Hepes buffer (140 mM NaCl, 4.5 mM KCl, 20 mM Hepes, 1.2 mM CaCl2, 1.2 mM MgCl2, 10 mM D-glucose, 0.1% BSA, pH: 7.4). Then, 80 μl of a solution of the sample dissolved in the same buffer was added to the wells, and incubated at 37° C. for 60 minutes. After the supernatant was collected, the cells were precipitated by centrifugation (800×g, 5 minutes, 4° C.), and 70 μl of the supernatant was cryopreserved. The total GLP-1 in this supernatant was measured with commercially available “Enzyme immuno assay kit” (manufactured by Yanaihara Institute Inc.)."}, "Sprague Dawley rat": {"system": "Sprague Dawley rat", "experiment": "Blood glucose and total GLP-1 over time after oral administration to fasted rats (Example 5)", "type": "in vivo", "details": "2 g/kg body weight oral, fasted SD rats, 0 to 240 minutes", "protocol": "Before a sample was administered (0 minutes), the blood was collected from the tail vein of each Sprague Dawley rat (8 to 9 weeks old male) having fasted overnight. Using a feeding tube, each solution of deionized water (control group), D-psicose, an indigestible dextrin (DE10), and a dextrin (the product manufactured by Matsutani Chemical Industry Co., Ltd.: “Pinedex #2” (DE10)) was orally administered at 2 g/kg body weight (10 mL/kg body weight). Then, the blood was collected from the tail vein after 15 minutes, 30 minutes, 60 minutes, 90 minutes, 120 minutes, 150 minutes, 180 minutes, 210 minutes, and 240 minutes.\nThe blood was collected into a tube to which a DPP-IV inhibitor (manufactured by Millipore Corporation), aprotinin (manufactured by Wako Pure Chemical Industries, Ltd.), and heparin (manufactured by Nacalai Tesque, Inc.) had been added in advance. The blood plasma was collected by centrifugation, and cryopreserved at −80° C. The total GLP-1 concentration in the resulting blood plasma was measured with a commercially available ELISA kit (Multi Species GLP-1 Total ELISA manufactured by Millipore Corporation). The glucose concentration in the blood plasma was measured with Glucose CII-Test Wako (manufactured by Wako Pure Chemical Industries, Ltd.)."}, "healthy subjects": {"system": "healthy subjects", "experiment": "Total GLP-1 blood concentration AUC after single ingestion by healthy subjects (Example 6)", "type": "in vivo", "details": "humans, fasting", "protocol": "After setting a termination period for one week or more in advance, 200 ml of water (control beverage) or D-psicose at 5 g/200 ml (D-psicose: 0.07 to 0.11 g/kg body weight), 10 g/200 ml (D-psicose: 0.14 to 0.22 g/kg body weight), or 15 g/200 ml (test beverage) (D-psicose: 0.21 to 0.33 g/kg body weight) each at a single dose was randomly ingested by six healthy subjects (three men and three women. The body weights: 53.3±7.4 kg). In the night before the day when the control beverage or the test beverage was ingested (test day), a designated dinner was ingested. After 21:00 in the night until 9:00 AM on the test day, the ingestion of foods and beverages excluding water and tea beverages was prohibited. As the designated diet, any menu (curry, chicken and egg bowl, beef bowl, Chinese rice bowl) was selectable which hardly contain substances such as dietary fibers, lactic acid bacteria, and fermentative saccharides utilizable by intestinal bacteria for the fermentations. […] The total GLP-1 amount in the centrifuged blood plasma was measured using the product manufactured by Merck KGaA: “Multi Species GLP-1 Total ELISA.” Note that the subjects were made to keep regular lifestyles and avoid excessive exercising, eating, and drinking during the test period of approximately one month, and spend a time quietly in house during the test."}, "C57BL/6J male mice [2]": {"system": "C57BL/6J male mice", "experiment": "Portal vein active GLP-1, total GLP-1 and total GIP over time after oral administration to fasting mice (Example 1)", "type": "in vivo", "details": "1 g/kg oral", "protocol": "As the experimental animal, C57BL/6J male mice (9-11 weeks old) were used. To the mice having fasted for 16 hours from 18:00 on the day before the experiment, D-psicose at 1 g/kg was orally administered into each stomach at 10:00 AM. The dose of the oral administration was 10 ml/kg. Before the D-psicose administration and 30 minutes and 60 minutes after the administration, the blood was collected from the portal vein under isoflurane anesthesia. Note that an anticoagulant (heparin (final concentration: 50 IU/ml)) and peptide degradation suppressors (aprotinin (final concentration: 500 KIU/ml) and vildagliptin (final concentration: 10 μM)) had been added into the sampling syringes in advance. The collected blood was cooled, centrifuged, and stored at −80° C. until the resulting blood plasma was analyzed. The quantitative analyses of active GLP-1, total GLP-1, and total GIP were conducted using ELISA kits (manufactured by Millipore Corporation. EGLP-35K, EZGLPIT-36K, and EZRMGIP-55K, respectively). In addition, as the statistical analyses, a one-way analysis of variance (paired) was performed, followed by Dunnett's test using a value before the D-psicose administration (0 min) as the control. […] Note that, in FIG. 2, * indicates p<0.05, and ** indicates p<0.01. Moreover, numerical values in bar graphs in FIG. 2 each indicate the number of experiments."}, "C57BL/6J male mice [3]": {"system": "C57BL/6J male mice", "experiment": "Amount of diet ingested after oral D-psicose with or without GLP-1 receptor inhibitor Ex-9 (Example 3)", "type": "in vivo", "details": "vs control group", "protocol": "The C57BL/6J male mice (9-11 weeks old) were preliminarily grown in separate cages for one week or more, and habituated to the growth and experimental environment through training by the experimenter. After the fasting for 16 hours from 18:00 on the day before the experiment, saline or a GLP-1 receptor inhibitor (Exendin-9, Ex-9, 200 nmol/kg) was intraperitoneally administered from 9:45. Immediately thereafter, saline or D-psicose at 1 g/kg was orally administered into each stomach. The doses of the intraperitoneal administration and the oral administration were respectively 5 ml/kg and 10 ml/kg. From 10:00, the mice were fed with Diet CE-2 (common mouse diet with well-balanced nutrients, manufactured by CLEA Japan, Inc.) ad lib. After 0.5 hours, 1 hour, 2 hours, 3 hours, and 6 hours, the amounts of the diet ingested were measured over time. Each amount of the diet ingested was calculated as the amount of energy ingested (kcal), given that 1 g of D-psicose orally administered into the stomach is 0 kcal, and 1 g of Diet CE-2 is 3.45 kcal. As the statistical analyses, a one-way analysis of variance (unpaired) was performed on the results at the respective time points, and multiple comparisons were performed by Tukey's test among all the groups. […] Note that, in FIG. 4, * indicates p<0.05, and ** indicates p<0.01."}, "C57BL/6J male mice [4]": {"system": "C57BL/6J male mice", "experiment": "Portal vein active GLP-1 and total GIP 30 minutes after oral administration of monosaccharides to fasting mice (Example 2)", "type": "in vivo", "details": "30 minutes after administration, vs saline", "protocol": "To the C57BL/6J male mice (9-11 weeks old) having fasted for 16 hours from 18:00 on the day before the experiment, D-psicose at 0.3 g/kg or 1 g/kg, D-tagatose or D-glucose each at 1 g/kg, or saline was orally administered into each stomach at 10:00 AM. The dose of the oral administration was 10 ml/kg. The blood was collected from the portal vein under isoflurane anesthesia 30 minutes after the administration. Note that an anticoagulant (heparin (final concentration: 50 IU/ml)) and peptide degradation suppressors (aprotinin (final concentration: 500 KIU/ml) and vildagliptin (final concentration: 10 μM)) had been added into the sampling syringes in advance. The collected blood was cooled and centrifuged. The blood plasma was stored at −80° C. until the analysis. The quantitative analyses of active GLP-1 and total GIP were conducted using the above-described kits. In addition, as the statistical analyses, a one-way analysis of variance (unpaired) was performed, followed by Dunnett's test using saline as the control. […] Note that, in FIG. 3, * indicates p<0.05, and ** indicates p<0.01. Moreover, numerical values in bar graphs in the figure each indicate the number of experiments."}, "C57BL/6J male mice [5]": {"system": "C57BL/6J male mice", "experiment": "Amount of diet ingested after oral D-psicose or D-tagatose (Example 4)", "type": "in vivo", "details": "1 g/kg oral, vs control group (saline)", "protocol": "The C57BL/6J male mice (7-11 weeks old) were preliminarily grown in separate cages for one week or more, and habituated to the growth and experimental environment through training by the experimenter. After the fasting for 16 hours from 18:00 on the day before the experiment, saline, D-psicose at 1 g/kg, or D-tagatose at 1 g/kg was orally administered into each stomach from 9:50. The doses were each 10 ml/kg. From 10:00, the mice were fed with Diet CE-2 ad lib. After 1 hour, 2 hours, and 6 hours, the amounts of the diet ingested were measured over time. Each amount of the diet ingested was calculated as the amount of energy ingested (kcal), given that 1 g of D-tagatose orally administered into the stomach is 2 kcal, and 1 g of Diet CE-2 is 3.45 kcal. As the statistical analyses, a one-way analysis of variance (unpaired) was performed on the results at the respective time points, and multiple comparisons were performed by Tukey's test among all the groups. […] Note that, in FIG. 5, * indicates p<0.05, and ** indicates p<0.01."}, "[6]": {"details": "30 to 60 minutes after administration vs 0 min"}}, "data": [{"compound": "O=C(CO)[C@H](O)[C@H](O)[C@H](O)CO", "note": "[D-psicose]", "values": [{"measurement": "GLP-1 secretion (total GLP-1 in supernatant)", "setting": "[1]", "value": "merely tended to exhibit slight secretion promotion"}, {"measurement": "blood sugar level", "setting": "Sprague Dawley rat", "value": "small variation"}, {"measurement": "total GLP-1 concentration in the blood", "setting": "Sprague Dawley rat", "value": "greatly increased"}, {"measurement": "area under total GLP-1 blood concentration-time curve (AUC)", "setting": "healthy subjects; single dose 5 g, 10 g or 15 g/200 ml, 15 to 180 minutes", "value": "increased in a manner dependent on the amount of D-psicose ingested"}, {"measurement": "single dose at which the effect of promoting the amount of total GLP-1 secreted into the blood was obtained", "setting": "healthy subjects; single oral ingestion", "value": "at least 0.07 g/kg body weight"}, {"measurement": "active GLP-1 concentration in the portal veins", "setting": "C57BL/6J male mice [2]; [6]", "value": "increased"}, {"measurement": "total GLP-1 concentration in the portal veins", "setting": "C57BL/6J male mice [2]; [6]", "value": "increased"}, {"measurement": "GIP secretion (total GIP concentration in the portal veins)", "setting": "C57BL/6J male mice [2]; for 60 minutes after administration", "value": "did not influence the GIP secretion"}, {"measurement": "amount of the diet ingested", "setting": "C57BL/6J male mice [3]; Ex-9 200 nmol/kg i.p. + D-psicose 1 g/kg oral, 30 minutes after administration", "value": "significantly smaller"}, {"measurement": "amount of the diet ingested", "setting": "C57BL/6J male mice [3]; Ex-9 200 nmol/kg i.p. + D-psicose 1 g/kg oral, after 1 hour (to 6 hours) from administration", "value": "not significantly different"}, {"measurement": "amount of the diet ingested", "setting": "C57BL/6J male mice [3]; saline i.p. + D-psicose 1 g/kg oral, 30 minutes to 6 hours after administration", "value": "significantly decreased"}, {"measurement": "active GLP-1 concentration in the portal veins", "setting": "C57BL/6J male mice [4]; 0.3 g/kg oral", "value": "tended to increase"}, {"measurement": "total GIP in the portal veins", "setting": "C57BL/6J male mice [4]; 0.3 g/kg oral", "value": "only the D-glucose administration group significantly increased the GIP concentration"}, {"measurement": "active GLP-1 concentration in the portal veins", "setting": "C57BL/6J male mice [4]; 1 g/kg oral", "value": "significantly increased"}, {"measurement": "total GIP in the portal veins", "setting": "C57BL/6J male mice [4]; 1 g/kg oral", "value": "only the D-glucose administration group significantly increased the GIP concentration"}, {"measurement": "amount of the diet ingested", "setting": "C57BL/6J male mice [5]; 1 hour to 6 hours after administration", "value": "significantly smaller"}]}, {"compound": "O=C[C@H](O)[C@@H](O)[C@H](O)[C@H](O)CO", "note": "[D-glucose, reference compound]", "values": [{"measurement": "active GLP-1 concentration in the portal veins", "setting": "C57BL/6J male mice [4]; 1 g/kg oral", "value": "did not change at all"}, {"measurement": "total GIP in the portal veins", "setting": "C57BL/6J male mice [4]; 1 g/kg oral", "value": "significantly increased the GIP concentration"}]}, {"compound": "O=C(CO)[C@@H](O)[C@@H](O)[C@H](O)CO", "note": "[D-tagatose, reference compound]", "values": [{"measurement": "active GLP-1 concentration in the portal veins", "setting": "C57BL/6J male mice [4]; 1 g/kg oral", "value": "tended to increase"}, {"measurement": "total GIP in the portal veins", "setting": "C57BL/6J male mice [4]; 1 g/kg oral", "value": "only the D-glucose administration group significantly increased the GIP concentration"}, {"measurement": "amount of the diet ingested", "setting": "C57BL/6J male mice [5]; 1 hour after administration", "value": "significantly smaller"}, {"measurement": "amount of the diet ingested", "setting": "C57BL/6J male mice [5]; 2 hours and 6 hours after administration", "value": "almost the same"}]}, {"compound": "Exendin-9 [Ex9, reference compound]", "values": [{"measurement": "amount of the diet ingested", "setting": "C57BL/6J male mice [3]; Ex-9 200 nmol/kg i.p. + saline oral, all time zones", "value": "at the same levels"}]}]}
